Reference: ChEMBL document CHEMBL2177025, “Chemical proteomics-based analysis of off-target binding profiles for rosiglitazone and pioglitazone: clues for assessing potential for cardiotoxicity” (J Med Chem, 2012)
The source made the active and inactive calls. The calls are words filed in the database; no cut-off is given here.

Columns and labels:
[1] = biological target: Endoplasmic reticulum membrane adapter protein XK (Mus musculus) (UniProt Q9QXY7); assay: Binding affinity to mouse membrane transport protein XK by chromatographic analysis relative to pioglitazone
[2] = biological target: Protein kinase C and casein kinase substrate in neurons protein 2 (Mus musculus) (UniProt Q9WVE8); assay: Binding affinity to mouse protein kinase C and casein kinase substrate in neurons protein 2 by chromatographic analysis
[3] = biological target: Importin-7 (Mus musculus) (UniProt Q9EPL8); assay: Binding affinity to mouse importin-7 by chromatographic analysis
[4] = biological target: Protein-tyrosine kinase 2-beta (Rattus norvegicus) (UniProt P70600); assay: Binding affinity to focal adhesion kinase 2 in Sprague-Dawley rat heart homogenate after 15 mins by chromatographic analysis; format: tissue-based
[5] = biological target: Inactive tyrosine-protein kinase transmembrane receptor ROR1 (Mus musculus) (UniProt Q9Z139); assay: Binding affinity to mouse tyrosine-protein kinase transmembrane receptor ROR1 by chromatographic analysis
[6] = biological target: PX domain-containing protein kinase-like protein (Rattus norvegicus) (UniProt Q4FZZ1); assay: Binding affinity to PX domain-containing protein kinase-like protein in Sprague-Dawley rat heart homogenate after 15 mins by chromatographic analysis relative to pioglitazone; format: tissue-based
[7] = biological target: Transcription factor SOX-5 (Mus musculus) (UniProt P35710); assay: Binding affinity to mouse transcription factor SOX-5 after 15 mins by chromatographic analysis
[8] = biological target: Kalirin (Rattus norvegicus) (UniProt P97924); assay: Binding affinity to Huntingtin-associated protein-interacting protein in Sprague-Dawley rat heart homogenate after 15 mins by chromatographic analysis; format: tissue-based
[9] = biological target: Dynactin subunit 1 (Mus musculus) (UniProt O08788); assay: Binding affinity to mouse dynactin-1 by chromatographic analysis
Dystonin (Mus musculus) = Dystonin (Mus musculus) (UniProt Q91ZU6); assay: Binding affinity to mouse bullous pemphigoid antigen 1 by chromatographic analysis
[10] = biological target: 26S proteasome non-ATPase regulatory subunit 1 (Rattus norvegicus) (UniProt O88761); assay: Binding affinity to 26S proteasome non-ATPase regulatory subunit 1 in Sprague-Dawley rat heart homogenate after 15 mins by chromatographic analysis; format: tissue-based
Norrin (Mus musculus) = Norrin (Mus musculus) (UniProt P48744); assay: Binding affinity to mouse norrin precursor by chromatographic analysis
[11] = biological target: ATP synthase F(1) complex catalytic subunit beta, mitochondrial (Rattus norvegicus) (UniProt P10719); assay: Binding affinity to mitochondrial ATP synthase beta chain in Sprague-Dawley rat heart homogenate after 15 mins by chromatographic analysis; format: tissue-based
[12] = biological target: Multiple PDZ domain protein (Mus musculus) (UniProt Q8VBX6); assay: Binding affinity to mouse multiple PDZ domain protein by chromatographic analysis
[13] = biological target: Ras/Rap GTPase-activating protein SynGAP (Rattus norvegicus) (UniProt Q9QUH6); assay: Binding affinity to RasGTPase-activating protein SynGAP in Sprague-Dawley rat heart homogenate after 15 mins by chromatographic analysis relative to pioglitazone; format: tissue-based
[14] = biological target: Glyceraldehyde-3-phosphate dehydrogenase (Rattus norvegicus) (UniProt P04797); assay: Binding affinity to glyceraldehyde 3-phosphate dehydrogenase in Sprague-Dawley rat heart homogenate after 15 mins by chromatographic analysis; format: tissue-based
[15] = biological target: T1, Dihydrolipoyl dehydrogenase, mitochondrial (Mus musculus) (UniProt O08749); assay: Binding affinity to mouse mitochondrial dihydrolipoyl dehydrogenase by chromatographic analysis relative to rosiglitazone
T1 sequence (whole entry): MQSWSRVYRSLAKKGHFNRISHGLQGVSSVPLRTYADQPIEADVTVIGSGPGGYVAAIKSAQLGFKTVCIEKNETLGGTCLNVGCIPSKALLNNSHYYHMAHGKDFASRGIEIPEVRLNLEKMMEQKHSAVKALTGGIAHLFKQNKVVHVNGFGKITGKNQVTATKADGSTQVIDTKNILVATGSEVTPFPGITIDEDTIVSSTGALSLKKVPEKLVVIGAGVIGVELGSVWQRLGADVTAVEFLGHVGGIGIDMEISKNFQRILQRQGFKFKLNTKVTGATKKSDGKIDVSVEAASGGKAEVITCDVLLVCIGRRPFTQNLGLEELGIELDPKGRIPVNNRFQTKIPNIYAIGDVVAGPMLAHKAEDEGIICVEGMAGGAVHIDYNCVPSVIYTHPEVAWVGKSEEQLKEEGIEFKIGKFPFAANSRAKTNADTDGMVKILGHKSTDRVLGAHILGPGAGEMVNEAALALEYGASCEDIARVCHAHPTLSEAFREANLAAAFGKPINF

[16] = biological target: ATP synthase F(1) complex subunit alpha, mitochondrial (Rattus norvegicus) (UniProt P15999); assay: Binding affinity to mitochondrial ATP synthase alpha chain in Sprague-Dawley rat heart homogenate after 15 mins by chromatographic analysis; format: tissue-based
[17] = biological target: Serine/threonine-protein kinase MAK (Mus musculus) (UniProt Q04859); assay: Binding affinity to mouse serine/threonine-protein kinase MAK by chromatographic analysis
[18] = biological target: L-lactate dehydrogenase B chain (Rattus norvegicus) (UniProt P42123); assay: Binding affinity to L-lactate dehydrogenase B chain in Sprague-Dawley rat heart homogenate after 15 mins by chromatographic analysis relative to rosiglitazone; format: tissue-based
[19] = biological target: H(+)/Cl(-) exchange transporter 6 (Mus musculus) (UniProt O35454); assay: Binding affinity to mouse chloride channel protein 6 after 15 mins by chromatographic analysis
[20] = biological target: Afadin- and alpha-actinin-binding protein (Rattus norvegicus) (UniProt Q8CGZ2); assay: Binding affinity to afadin- and alpha-actinin-binding protein in Sprague-Dawley rat heart homogenate after 15 mins by chromatographic analysis; format: tissue-based
[21] = biological target: T2, Long-chain specific acyl-CoA dehydrogenase, mitochondrial (Rattus norvegicus) (UniProt P15650); assay: Binding affinity to mitochondrial long-chain specific acyl-CoA dehydrogenase in Sprague-Dawley rat heart homogenate after 15 mins by chromatographic analysis relative to rosiglitazone; format: tissue-based
T2 sequence (whole entry): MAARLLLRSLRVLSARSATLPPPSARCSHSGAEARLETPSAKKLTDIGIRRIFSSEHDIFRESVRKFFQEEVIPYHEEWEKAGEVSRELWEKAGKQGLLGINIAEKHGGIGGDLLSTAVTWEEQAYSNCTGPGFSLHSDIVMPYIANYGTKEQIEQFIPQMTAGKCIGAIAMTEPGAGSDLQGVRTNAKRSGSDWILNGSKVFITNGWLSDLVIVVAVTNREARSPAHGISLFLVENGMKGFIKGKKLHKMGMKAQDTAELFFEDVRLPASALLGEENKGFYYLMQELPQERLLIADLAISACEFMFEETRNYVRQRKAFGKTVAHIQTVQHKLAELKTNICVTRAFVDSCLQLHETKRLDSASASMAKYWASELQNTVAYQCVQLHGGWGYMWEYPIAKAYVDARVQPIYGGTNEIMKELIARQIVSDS

[22] = biological target: Neuronal acetylcholine receptor subunit alpha-10 (Rattus norvegicus) (UniProt Q9JLB5); assay: Binding affinity to neuronal acetylcholine receptor subunit alpha-10 in Sprague-Dawley rat heart homogenate after 15 mins by chromatographic analysis; format: tissue-based
[23] = biological target: Serine/threonine-protein kinase WNK1 (Mus musculus) (UniProt P83741); assay: Binding affinity to mouse serine/threonine-protein kinase WNK1 by chromatographic analysis relative to rosiglitazone

Chain of L-lactate dehydrogenase B chain (Rattus norvegicus) (P42123 whole entry): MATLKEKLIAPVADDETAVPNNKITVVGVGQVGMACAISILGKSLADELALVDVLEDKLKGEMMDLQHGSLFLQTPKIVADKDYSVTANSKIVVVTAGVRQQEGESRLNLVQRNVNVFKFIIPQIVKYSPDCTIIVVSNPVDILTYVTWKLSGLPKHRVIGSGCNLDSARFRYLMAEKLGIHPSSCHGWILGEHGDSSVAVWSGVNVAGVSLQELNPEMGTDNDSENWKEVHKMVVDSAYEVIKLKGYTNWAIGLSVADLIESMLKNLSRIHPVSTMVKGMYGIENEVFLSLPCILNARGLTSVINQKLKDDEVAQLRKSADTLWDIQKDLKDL
Chain of 26S proteasome non-ATPase regulatory subunit 1 (Rattus norvegicus) (O88761 whole entry): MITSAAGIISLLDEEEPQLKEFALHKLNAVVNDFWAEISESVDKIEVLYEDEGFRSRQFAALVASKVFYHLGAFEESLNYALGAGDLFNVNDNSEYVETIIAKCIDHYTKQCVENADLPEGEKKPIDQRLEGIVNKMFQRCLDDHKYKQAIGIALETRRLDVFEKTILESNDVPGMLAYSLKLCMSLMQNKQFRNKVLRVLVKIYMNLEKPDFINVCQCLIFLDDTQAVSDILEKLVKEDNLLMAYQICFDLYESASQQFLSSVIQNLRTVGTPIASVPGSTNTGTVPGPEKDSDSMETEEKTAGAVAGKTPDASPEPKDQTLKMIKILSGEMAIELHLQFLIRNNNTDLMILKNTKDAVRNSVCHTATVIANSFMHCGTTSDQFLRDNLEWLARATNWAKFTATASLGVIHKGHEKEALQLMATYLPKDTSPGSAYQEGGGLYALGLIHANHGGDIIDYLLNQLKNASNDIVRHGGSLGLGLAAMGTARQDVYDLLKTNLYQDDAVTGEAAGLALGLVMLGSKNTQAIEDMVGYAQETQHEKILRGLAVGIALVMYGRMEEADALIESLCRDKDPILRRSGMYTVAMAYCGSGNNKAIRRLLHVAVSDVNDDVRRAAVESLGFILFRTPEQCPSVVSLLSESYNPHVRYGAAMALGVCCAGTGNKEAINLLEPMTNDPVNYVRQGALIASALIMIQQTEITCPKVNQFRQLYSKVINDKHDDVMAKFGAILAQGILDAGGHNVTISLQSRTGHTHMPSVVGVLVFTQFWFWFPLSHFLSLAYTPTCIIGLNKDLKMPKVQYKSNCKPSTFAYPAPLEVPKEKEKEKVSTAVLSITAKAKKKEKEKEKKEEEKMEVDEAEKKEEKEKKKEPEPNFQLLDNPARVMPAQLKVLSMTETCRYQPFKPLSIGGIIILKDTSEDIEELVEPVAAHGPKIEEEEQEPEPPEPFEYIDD
Chain of H(+)/Cl(-) exchange transporter 6 (Mus musculus) (O35454 whole entry): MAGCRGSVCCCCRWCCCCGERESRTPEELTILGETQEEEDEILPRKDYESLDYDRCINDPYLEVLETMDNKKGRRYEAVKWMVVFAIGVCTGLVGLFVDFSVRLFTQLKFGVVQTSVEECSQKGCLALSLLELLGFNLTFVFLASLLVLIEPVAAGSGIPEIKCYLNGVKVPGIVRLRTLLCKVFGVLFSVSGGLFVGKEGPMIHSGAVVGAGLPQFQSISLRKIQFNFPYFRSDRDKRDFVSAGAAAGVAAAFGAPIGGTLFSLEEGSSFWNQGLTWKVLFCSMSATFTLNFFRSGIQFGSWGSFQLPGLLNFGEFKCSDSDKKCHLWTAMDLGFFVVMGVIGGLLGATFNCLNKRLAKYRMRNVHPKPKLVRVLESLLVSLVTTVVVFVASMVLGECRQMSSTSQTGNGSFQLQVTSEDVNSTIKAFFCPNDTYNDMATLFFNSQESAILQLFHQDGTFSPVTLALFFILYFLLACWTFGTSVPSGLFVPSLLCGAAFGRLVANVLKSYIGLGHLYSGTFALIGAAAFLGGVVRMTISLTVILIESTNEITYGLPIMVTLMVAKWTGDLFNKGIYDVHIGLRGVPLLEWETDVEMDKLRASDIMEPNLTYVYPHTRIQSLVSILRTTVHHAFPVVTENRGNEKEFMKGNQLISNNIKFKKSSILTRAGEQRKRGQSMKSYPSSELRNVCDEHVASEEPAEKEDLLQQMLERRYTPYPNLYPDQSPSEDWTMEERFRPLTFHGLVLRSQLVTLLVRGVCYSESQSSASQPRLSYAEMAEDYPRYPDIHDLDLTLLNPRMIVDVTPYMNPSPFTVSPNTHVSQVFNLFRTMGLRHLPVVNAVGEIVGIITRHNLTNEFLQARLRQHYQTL
Chain of ATP synthase F(1) complex catalytic subunit beta, mitochondrial (Rattus norvegicus) (P10719 whole entry, the tested form may be a part, one chain of several): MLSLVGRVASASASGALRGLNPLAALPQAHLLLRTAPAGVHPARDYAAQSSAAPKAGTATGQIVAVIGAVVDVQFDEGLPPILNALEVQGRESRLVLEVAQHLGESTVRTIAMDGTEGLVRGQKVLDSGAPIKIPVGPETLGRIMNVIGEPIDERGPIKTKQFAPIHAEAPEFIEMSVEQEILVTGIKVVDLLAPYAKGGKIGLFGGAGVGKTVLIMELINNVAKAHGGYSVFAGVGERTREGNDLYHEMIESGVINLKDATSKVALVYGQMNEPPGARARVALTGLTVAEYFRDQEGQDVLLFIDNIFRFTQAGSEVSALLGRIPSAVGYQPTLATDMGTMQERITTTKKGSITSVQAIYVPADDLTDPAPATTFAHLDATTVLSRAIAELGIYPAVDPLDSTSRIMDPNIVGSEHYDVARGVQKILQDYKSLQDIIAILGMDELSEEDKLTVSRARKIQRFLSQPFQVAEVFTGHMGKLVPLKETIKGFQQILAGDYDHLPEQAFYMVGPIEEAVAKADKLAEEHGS
Chain of PX domain-containing protein kinase-like protein (Rattus norvegicus) (Q4FZZ1 whole entry, the tested form may be a part): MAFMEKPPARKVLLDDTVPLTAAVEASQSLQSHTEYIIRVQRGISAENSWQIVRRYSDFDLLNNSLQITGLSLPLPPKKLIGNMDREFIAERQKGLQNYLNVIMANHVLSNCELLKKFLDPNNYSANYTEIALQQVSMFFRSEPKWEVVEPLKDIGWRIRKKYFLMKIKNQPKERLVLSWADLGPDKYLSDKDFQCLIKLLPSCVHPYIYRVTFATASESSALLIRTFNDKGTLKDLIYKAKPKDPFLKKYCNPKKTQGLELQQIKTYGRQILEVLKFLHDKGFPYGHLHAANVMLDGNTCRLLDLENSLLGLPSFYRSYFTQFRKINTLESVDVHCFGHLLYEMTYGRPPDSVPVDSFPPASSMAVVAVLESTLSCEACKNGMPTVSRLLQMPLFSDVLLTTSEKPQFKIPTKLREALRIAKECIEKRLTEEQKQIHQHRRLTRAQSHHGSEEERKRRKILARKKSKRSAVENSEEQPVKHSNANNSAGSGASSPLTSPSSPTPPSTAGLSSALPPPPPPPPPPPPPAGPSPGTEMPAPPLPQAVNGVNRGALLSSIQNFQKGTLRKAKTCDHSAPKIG
Chain of Importin-7 (Mus musculus) (Q9EPL8 whole entry): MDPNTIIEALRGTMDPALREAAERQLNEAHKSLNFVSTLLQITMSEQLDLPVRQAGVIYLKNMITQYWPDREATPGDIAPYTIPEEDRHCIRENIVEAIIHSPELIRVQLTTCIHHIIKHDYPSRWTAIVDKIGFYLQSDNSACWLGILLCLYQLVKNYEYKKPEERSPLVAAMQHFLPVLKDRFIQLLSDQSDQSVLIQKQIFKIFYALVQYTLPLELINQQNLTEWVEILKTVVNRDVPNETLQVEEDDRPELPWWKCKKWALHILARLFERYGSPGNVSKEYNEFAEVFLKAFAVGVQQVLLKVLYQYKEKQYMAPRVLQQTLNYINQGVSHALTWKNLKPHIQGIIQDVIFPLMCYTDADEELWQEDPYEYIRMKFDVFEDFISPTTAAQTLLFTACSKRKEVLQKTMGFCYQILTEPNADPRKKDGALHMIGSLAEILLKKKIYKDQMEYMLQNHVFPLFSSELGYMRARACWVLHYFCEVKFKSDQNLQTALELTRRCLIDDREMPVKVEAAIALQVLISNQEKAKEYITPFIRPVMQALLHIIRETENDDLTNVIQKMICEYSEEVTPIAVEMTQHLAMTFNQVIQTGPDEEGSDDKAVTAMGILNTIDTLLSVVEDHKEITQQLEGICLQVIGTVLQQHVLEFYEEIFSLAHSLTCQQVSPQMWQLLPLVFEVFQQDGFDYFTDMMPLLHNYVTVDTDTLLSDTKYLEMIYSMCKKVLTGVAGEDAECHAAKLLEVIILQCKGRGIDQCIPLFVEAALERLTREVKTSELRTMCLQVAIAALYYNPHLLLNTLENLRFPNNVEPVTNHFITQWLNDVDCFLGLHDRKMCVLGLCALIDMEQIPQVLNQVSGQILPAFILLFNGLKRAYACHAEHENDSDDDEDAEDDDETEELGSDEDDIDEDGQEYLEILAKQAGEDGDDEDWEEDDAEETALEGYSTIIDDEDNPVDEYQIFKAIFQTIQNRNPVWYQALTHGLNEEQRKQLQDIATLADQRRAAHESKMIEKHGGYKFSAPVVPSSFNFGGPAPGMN
Chain of Transcription factor SOX-5 (Mus musculus) (P35710 whole entry): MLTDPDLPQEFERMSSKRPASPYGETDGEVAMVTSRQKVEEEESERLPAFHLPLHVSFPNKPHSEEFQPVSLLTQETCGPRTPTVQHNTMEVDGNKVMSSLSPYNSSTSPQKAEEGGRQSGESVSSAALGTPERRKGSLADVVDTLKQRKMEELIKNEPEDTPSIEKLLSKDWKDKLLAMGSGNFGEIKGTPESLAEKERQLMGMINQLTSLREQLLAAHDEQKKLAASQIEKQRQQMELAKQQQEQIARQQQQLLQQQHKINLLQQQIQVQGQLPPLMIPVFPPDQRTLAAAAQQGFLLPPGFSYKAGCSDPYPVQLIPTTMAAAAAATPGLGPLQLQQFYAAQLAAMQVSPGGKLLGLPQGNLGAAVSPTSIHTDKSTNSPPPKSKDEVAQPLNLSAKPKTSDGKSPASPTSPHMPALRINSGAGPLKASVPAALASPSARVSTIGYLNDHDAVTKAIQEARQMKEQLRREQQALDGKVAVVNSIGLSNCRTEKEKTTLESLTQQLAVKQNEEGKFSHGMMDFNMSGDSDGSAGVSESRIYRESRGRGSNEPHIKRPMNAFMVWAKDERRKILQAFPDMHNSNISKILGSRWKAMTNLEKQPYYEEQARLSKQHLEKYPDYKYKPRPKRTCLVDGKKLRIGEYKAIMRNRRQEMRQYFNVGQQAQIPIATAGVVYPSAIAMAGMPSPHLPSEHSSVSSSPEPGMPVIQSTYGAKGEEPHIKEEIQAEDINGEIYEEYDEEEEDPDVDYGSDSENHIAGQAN

SMILES: CCc1ccc(CCOc2ccc(CC3SC(=O)NC3=O)cc2)nc1 (stereo not drawn)
- Activity [1]: Active
- Activity [2]: inactive
- Activity [3]: Active
- Activity [4]: Active
- Activity [5]: Active
- Activity [6]: Active
- Activity [7]: Active
- Activity [8]: Active
- Activity [9]: Active
- Activity (Dystonin (Mus musculus)): Active
- Activity [10]: Active
- Activity (Norrin (Mus musculus)): inactive
- Activity [11]: Active
- Activity [12]: Active
- Activity [13]: Active
- Activity [14]: Active
- Activity [15]: Active
- fold change (FC) [15]: 1.88
- Activity [16]: Active
- Activity [17]: Active
- Activity [18]: Active
- fold change (FC) [18]: 2.26
- Activity [19]: Active
- Activity [20]: Active
- Activity [21]: Active
- fold change (FC) [21]: 5.78
- Activity [22]: Active
- fold change (FC) [23]: 3.24

SMILES: CN(CCOc1ccc(CC2SC(=O)NC2=O)cc1)c1ccccn1 (stereo not drawn)
- fold change (FC) [1]: 1.88
- Activity [2]: Active
- Activity [3]: Active
- Activity [4]: inactive
- Activity [5]: Active
- fold change (FC) [6]: 2.64
- Activity [7]: Active
- Activity [8]: Active
- Activity [9]: Active
- Activity (Dystonin (Mus musculus)): Active
- Activity [10]: Active
- Activity (Norrin (Mus musculus)): Active
- Activity [11]: Active
- Activity [12]: Active
- fold change (FC) [13]: 2.12
- Activity [14]: Active
- Activity [15]: Active
- Activity [16]: Active
- Activity [17]: Active
- Activity [18]: Active
- Activity [19]: Active
- Activity [20]: Active
- Activity [21]: Active
- Activity [22]: Active
- Activity [23]: Active
